In brackets after ≈: the same amount, converted by molar mass. Read-outs that look alike come from different tables or passages of the source.
Legend:
Assay type in all cases: cell-based
[1] = test system: Citrobacter freundii species complex OXA-181; assay: MIC, CLSI broth microdilution
Outline: (§1)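 Frozen stocks (−80 °C, skim milk) were subcultured twice. Fresh cultures were suspended in broth and added to 2-fold compound dilutions to a working inoculum of 5×10^5 CFU/mL. Final test concentrations spanned 16-0.0125 μg/mL, following the CLSI microdilution method.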

[2] = test system: Escherichia coli ATCC 25922; assay: MIC, CLSI broth microdilution; conditions: ATCC25922
Outline: as §1

[3] = test system: Escherichia coli CTX-M-15; assay: MIC, CLSI broth microdilution; conditions: CTXM15
Outline: as §1

[4] = test system: Klebsiella aerogenes VIM-1, SHV-12; assay: MIC, CLSI broth microdilution
Outline: as §1

[5] = test system: Klebsiella oxytoca KPC-2, TEM-1; assay: MIC, CLSI broth microdilution
Outline: as §1

[6] = test system: Klebsiella pneumoniae KPC-2; assay: MIC, CLSI broth microdilution; conditions: KPC2
Outline: as §1

[7] = test system: Klebsiella pneumoniae KPC-3; assay: MIC, CLSI broth microdilution
Outline: as §1

[8] = test system: Klebsiella pneumoniae OXA-163, OXA-1_OXA-30, SHV-1, TEM-1; assay: MIC, CLSI broth microdilution
Outline: (§2)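 CLSI broth microdilution; 2-fold compound series, final 16-0.0125 μg/mL; final inoculum 5×10^5 CFU/mL. Strains genotyped for resistance markers, passaged twice from frozen stock before testing.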

[9] = test system: Klebsiella pneumoniae OXA-48, SHV-1; assay: MIC, CLSI broth microdilution
Outline: as §2

[10] = test system: Klebsiella pneumoniae SHV-12; assay: MIC, CLSI broth microdilution
Outline: as §1

[11] = test system: Pseudomonas aeruginosa ATCC 27853; assay: MIC, CLSI broth microdilution; conditions: ATCC27853
Outline: as §1

[12] = test system: Pseudomonas aeruginosa AmpC overexpressed; assay: MIC, CLSI broth microdilution
Outline: as §2

[13] = test system: Pseudomonas aeruginosa OprD negative; assay: MIC, CLSI broth microdilution
Outline: as §2

[14] = test system: Serratia marcescens AmpC overexpressed; assay: MIC, CLSI broth microdilution
Outline: as §2

[15] = test system: Serratia marcescens SME-2; assay: MIC, CLSI broth microdilution; conditions: SME2
Outline: as §1

[16] = test system: Citrobacter freundii species complex Elevated AmpC; assay: MIC against Elevated AmpC producing strains, compound alone; conditions: row r16
Procedure: (§3) Gram-negative and Gram-positive bacterial strains used during the in vitro minimum inhibitory concentration (MIC) determination were obtained either from the American Type Culture Collection (ATCC) or from clinical specimens. All strains were characterized genotypically and the respective antibiotic resistance markers for each strain were identified.
(§4) Isolates were sub-cultured onto appropriate media and stocked in skim milk at −80° C. Following two subcultures from frozen stock, in vitro antimicrobial susceptibility testing was performed using the Clinical and Laboratory Standards Institute (CLSI) broth microdilution method. Briefly, fresh cultures were suspended in culture media to give a final stock inoculum size of 5×10^7 colony forming units per milliliter of broth (CFU/mL). Test compounds were prepared at a stock solution concentration equal to 128 μg/mL, then diluted to give a final an initial working concentration of 32 μg/mL. 100 μL of the stock solutions were added to the first wells in a 96-well plate and were then diluted using a 2-fold dilution method to give a range of 32-0.025 μg/mL. 100 μL of the bacterial suspensions were then added to the 96-well plates to give a final working inoculum size of 5×10^5 CFU/mL. The final compound concentration range was 16-0.0125 μg/mL. […] MICs for comparator agents were determined using custom-designed, in-house prepared 96-well broth microdilution panels.

[17] = test system: Enterobacter cloacae species complex Elevated AmpC; assay: as above
Procedure: as §3, §4

[18] = test system: Escherichia coli Elevated AmpC; assay: as above
Procedure: as §3, §4

[19] = test system: Citrobacter freundii species complex Elevated AmpC; assay: Synergistic activity: MIC in the presence of Avibactam; conditions: row r16, in the presence of Avibactam @ 4 μg/mL
Procedure: as §4
(§5) The same method used to test the activity of the claimed compounds was used to determine their synergistic activity when combined with a β-lactamase inhibitor except that either a fixed concentration or fixed ratio of a β-lactamase inhibitor was added to the 96-well plates prior to adding the bacteria cultures. Synergistic activity was defined as the reduction of MIC of a given compound when tested using the β-lactamase inhibitor versus testing the compound in the absence of a β-lactamase inhibitor.

[20] = test system: Enterobacter cloacae species complex Elevated AmpC; assay: as above
Procedure: as §4, §5

[21] = test system: Escherichia coli CMY-DHA; assay: as above
Procedure: as §4, §5

[22] = test system: Escherichia coli Elevated AmpC; assay: as above
Procedure: as §4, §5

[23] = test system: Klebsiella pneumoniae CMY-DHA; assay: as above; conditions: row r32, in the presence of Avibactam @ 4 μg/mL
Procedure: as §4, §5

[24] = test system: Proteus mirabilis CMY-DHA; assay: as above; conditions: row r36, in the presence of Avibactam @ 4 μg/mL
Procedure: as §4, §5

[25] = in the presence of Avibactam @ 4 μg/mL
[26] = strain of row r7, in the presence of Avibactam @ 4 μg/mL
[27] = strain of row r20, in the presence of Avibactam @ 4 μg/mL
[28] = strain of row r26, in the presence of Avibactam @ 4 μg/mL
[29] = strain of row r27, in the presence of Avibactam @ 4 μg/mL
[30] = strain of row r28, in the presence of Avibactam @ 4 μg/mL
[31] = strain of row r29, in the presence of Avibactam @ 4 μg/mL
[32] = strain of row r30, in the presence of Avibactam @ 4 μg/mL
[33] = strain of row r31, in the presence of Avibactam @ 4 μg/mL
[34] = strain of row r34, in the presence of Avibactam @ 4 μg/mL
[35] = strain of row r35, in the presence of Avibactam @ 4 μg/mL
[36] = strain of row r10, in the presence of Avibactam @ 4 μg/mL
[37] = strain of row r11, in the presence of Avibactam @ 4 μg/mL
[38] = strain of row r12, in the presence of Avibactam @ 4 μg/mL
[39] = strain of row r13, in the presence of Avibactam @ 4 μg/mL
[40] = strain of row r14, in the presence of Avibactam @ 4 μg/mL
[41] = strain of row r15, in the presence of Avibactam @ 4 μg/mL

Nc1nc(/C(=N/OC2(C(=O)O)CCOCC2)C(=O)N[C@H]2CON(C3(C(=O)O)C[C@H](N4C(=O)c5cc(O)c(O)cc5C4=O)C(=O)O3)C2=O)cs1 (stereo partly drawn) [Cmpd 8, 4-({(Z)-[1-(2-amino-1,3-thiazol-4-yl)-2-({(4S)-2-[(4S)-2-carboxy-4-(5,6-dihydroxy-1,3-dioxo-1,3-dihydro-2H-isoindol-2-yl)-5-oxooxolan-2-yl]-3-oxo-1,2-oxazolidin-4-yl}amino)-2-oxoethylidene]amino}oxy)oxane-4-carboxylic acid]
MIC ([1]; Citrobacter freundii): 0.0149 µg/mL (≈ 0.0211 µM) | MIC [2]: 0.06 µg/mL (≈ 0.0852 µM) | MIC [3]: 2 µg/mL (≈ 2.84 µM) | MIC [4]: 2 µg/mL (≈ 2.84 µM) | MIC [5]: 0.0149 µg/mL (≈ 0.0211 µM) | MIC [6]: 0.12 µg/mL (≈ 0.17 µM) | MIC ([7]; KPC3): 0.0149 µg/mL (≈ 0.0211 µM) | MIC [8]: 0.06 µg/mL (≈ 0.0852 µM) | MIC [9]: 0.0149 µg/mL (≈ 0.0211 µM) | MIC ([10]; SHV12): 0.0149 µg/mL (≈ 0.0211 µM) | MIC [11]: 0.12 µg/mL (≈ 0.17 µM) | MIC [12]: 0.5 µg/mL (≈ 0.71 µM) | MIC [13]: 0.12 µg/mL (≈ 0.17 µM) | MIC [14]: 0.06 µg/mL (≈ 0.0852 µM) | MIC [15]: 0.06 µg/mL (≈ 0.0852 µM) | MIC [16]: 0.25 µg/mL (≈ 0.355 µM) | MIC [17]: 0.5 µg/mL (≈ 0.71 µM) | MIC ([17]; strain of row r7): 2 µg/mL (≈ 2.84 µM) | MIC ([17]; strain of row r20): 0.12 µg/mL (≈ 0.17 µM) | MIC ([18]; strain of row r10): 0.015 µg/mL (≈ 0.0213 µM) | MIC ([18]; strain of row r11): 0.12 µg/mL (≈ 0.17 µM) | MIC ([18]; strain of row r12): 0.25 µg/mL (≈ 0.355 µM) | MIC ([18]; strain of row r13): 0.03 µg/mL (≈ 0.0426 µM) | MIC ([18]; strain of row r14): 0.06 µg/mL (≈ 0.0852 µM) | MIC ([18]; strain of row r15): 0.12 µg/mL (≈ 0.17 µM) | MIC [19]: 0.03 µg/mL | MIC [20, 25]: 0.06 µg/mL | MIC [20, 26]: 0.12 µg/mL | MIC [20, 27]: <=0.008 μg/mL | MIC [21, 28]: 0.03 µg/mL | MIC [21, 29]: <=0.008 μg/mL | MIC [21, 30]: <=0.008 μg/mL | MIC [21, 31]: 0.06 µg/mL | MIC [21, 32]: <=0.008 μg/mL | MIC [21, 33]: 0.06 µg/mL | MIC [21, 34]: 0.015 µg/mL | MIC [21, 35]: <=0.008 μg/mL | MIC [22, 36]: <=0.008 μg/mL | MIC [22, 37]: 0.03 µg/mL | MIC [22, 38]: 0.03 µg/mL | MIC [22, 39]: <=0.008 μg/mL | MIC [22, 40]: <=0.008 μg/mL | MIC [22, 41]: 0.06 µg/mL | MIC [23]: 0.25 µg/mL | MIC [24]: 0.5 µg/mL

Nc1nc(/C(=N/OC2(C(=O)O)CCOCC2)C(=O)N[C@H]2CON(C3(C(=O)O)C[C@H](N4C(=O)c5cc(O)c(O)nc5C4=O)C(=O)O3)C2=O)cs1 (stereo partly drawn) [Cmpd 26, 4-({(Z)-[1-(2-amino-1,3-thiazol-4-yl)-2-({(4S)-2-[(4S)-2-carboxy-4-(2,3-dihydroxy-5,7-dioxo-5,7-dihydro-6H-pyrrolo[3,4-b]pyridin-6-yl)-5-oxooxolan-2-yl]-3-oxo-1,2-oxazolidin-4-yl}amino)-2-oxoethylidene]amino}oxy)oxane-4-carboxylic acid]
MIC ([1]; Citrobacter freundii species complex, OXA-181, read-out: MIC): 0.25 µg/mL (≈ 0.354 µM) | MIC [2]: 0.5 µg/mL (≈ 0.709 µM) | MIC [3]: 4 µg/mL (≈ 5.67 µM) | MIC [4]: 0.25 µg/mL (≈ 0.354 µM) | MIC ([5]; KPC-2, TEM-1, read-out: MIC): 0.0149 µg/mL (≈ 0.0211 µM) | MIC [6]: 0.0149 µg/mL (≈ 0.0211 µM) | MIC ([7]; KPC3, KPC-3, read-out: MIC): 0.12 µg/mL (≈ 0.17 µM) | MIC [8]: 0.12 µg/mL (≈ 0.17 µM) | MIC [9]: 0.0149 µg/mL (≈ 0.0211 µM) | MIC ([10]; SHV12, SHV-12, read-out: MIC): 0.06 µg/mL (≈ 0.085 µM) | MIC [11]: 2 µg/mL (≈ 2.83 µM) | MIC [12]: 4 µg/mL (≈ 5.67 µM) | MIC [13]: 2 µg/mL (≈ 2.83 µM) | MIC [14]: 0.5 µg/mL (≈ 0.709 µM) | MIC [15]: 0.5 µg/mL (≈ 0.709 µM) | MIC [16]: 1 µg/mL (≈ 1.42 µM) | MIC [17]: 2 µg/mL (≈ 2.83 µM) | MIC ([17]; strain of row r7): 4 µg/mL (≈ 5.67 µM) | MIC ([17]; strain of row r20): 1 µg/mL (≈ 1.42 µM) | MIC ([18]; strain of row r10): 0.06 µg/mL (≈ 0.085 µM) | MIC ([18]; strain of row r11): 0.5 µg/mL (≈ 0.709 µM) | MIC ([18]; strain of row r12): 2 µg/mL (≈ 2.83 µM) | MIC ([18]; strain of row r13): 0.06 µg/mL (≈ 0.085 µM) | MIC ([18]; strain of row r14): 0.12 µg/mL (≈ 0.17 µM) | MIC ([18]; strain of row r15): 0.5 µg/mL (≈ 0.709 µM) | MIC [19]: 0.25 µg/mL | MIC [20, 25]: 0.25 µg/mL | MIC [20, 26]: 0.5 µg/mL | MIC [20, 27]: <=0.008 μg/mL | MIC [21, 28]: 0.25 µg/mL | MIC [21, 29]: 0.03 µg/mL | MIC [21, 30]: 0.06 µg/mL | MIC [21, 31]: 0.5 µg/mL | MIC [21, 32]: <=0.008 μg/mL | MIC [21, 33]: 0.5 µg/mL | MIC [21, 34]: 0.06 µg/mL | MIC [21, 35]: 0.06 µg/mL | MIC [22, 36]: 0.015 µg/mL | MIC [22, 37]: 0.12 µg/mL | MIC [22, 38]: 0.25 µg/mL | MIC [22, 39]: <=0.008 μg/mL | MIC [22, 40]: 0.015 µg/mL | MIC [22, 41]: 0.12 µg/mL | MIC [23]: 0.5 µg/mL | MIC [24]: 0.06 µg/mL
